Biological target: T1, Human FXIIa (Homo sapiens, UniProt P00748)
T1 construct: active coagulation factor XII (FXIIa); purchased Enzyme Research Labs
T1 sequence (P00748 373-615 limits assumed): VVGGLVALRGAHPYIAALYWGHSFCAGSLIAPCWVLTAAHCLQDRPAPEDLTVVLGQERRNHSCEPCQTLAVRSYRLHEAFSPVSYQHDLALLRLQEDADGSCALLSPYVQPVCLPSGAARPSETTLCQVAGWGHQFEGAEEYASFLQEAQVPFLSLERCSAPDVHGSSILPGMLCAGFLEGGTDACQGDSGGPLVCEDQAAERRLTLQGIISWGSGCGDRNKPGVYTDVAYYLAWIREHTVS
T1 sequence (P00748 20-372 partner limits assumed): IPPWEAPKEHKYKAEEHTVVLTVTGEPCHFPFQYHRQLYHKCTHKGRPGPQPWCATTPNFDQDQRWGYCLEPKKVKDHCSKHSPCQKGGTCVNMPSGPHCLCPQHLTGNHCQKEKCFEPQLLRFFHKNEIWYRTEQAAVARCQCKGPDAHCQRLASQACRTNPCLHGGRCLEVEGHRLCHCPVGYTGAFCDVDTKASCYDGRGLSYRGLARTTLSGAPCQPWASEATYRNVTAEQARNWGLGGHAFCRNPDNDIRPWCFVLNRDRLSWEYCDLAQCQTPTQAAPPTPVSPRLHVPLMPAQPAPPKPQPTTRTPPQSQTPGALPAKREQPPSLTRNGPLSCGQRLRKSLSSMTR
Experiment: Factor XIIa (FXIIa) inhibitory activity, chromogenic substrate assay
Type: biochemical
Details: Human FXIIa 12.5 nM, Pefachrome XIIa 400 μM, 10 min preincubation
Procedure: Factor XIIa (FXIIa) Inhibitory Activity:
In a 96-well clear bottom plate, 80 μl of assay buffer was added to each well. Assay buffer consists of 0.5× Hank's Balanced Salt Solution (Invitrogen), buffered with 25 mM HEPES pH 7.4 (Invitrogen) and 0.5× Tris-buffered saline with Tween-20 0.05% (Santa Cruz Biotechnology). Test compounds were first dissolved in DMSO (Sigma) and then 4 μl were added to test wells containing assay buffer. Serial dilutions using an automated multi-channel pipette were used to generate a concentration range of approximately 1-100 μM. […] 80 μl of this enzyme solution was added to the assay wells. The enzyme/compound mixtures were incubated for 10 minutes at room temperature. Chromogenic substrate (Pefachrome XIIa; Enzyme Research Labs) was added to assay wells at a final concentration of 400 μM. The assay plate was spun for 1 minute at 1500 g and then read at 37° C. in a SpectraMax M2 plate reader (λ=405 nm). Activity was quantified as the rate of change in absorbance, which corresponds to the rate of substrate cleavage.

| Compound | IC50 [µM] |
| --- | --- |
| Cc1cc2c(C(=O)n3ncc4c3CCCC4)cccc2[nH]1 [Example 160] | 6 |
| Cc1cccc2c1NCCC2C(=O)n1nc(N)c2c1CCC=C2 (centres unmarked) [Example 196, (3-amino-6,7-dihydroindazol-1-yl)(8-methyl-1,2,3,4-tetrahydroquinolin-4-yl)methanone] | 7.5 |
| Nc1c2c(nn1C(=O)C1CCNc3ccccc31)CCCC2 (single isomer, unassigned) [Example 78, (R*)-(3-amino-4,5,6,7-tetrahydroindazol-2-yl)(1,2,3,4-tetrahydroquinolin-4-yl)methanone] | 0.15 |
| Nc1c2c(nn1C(=O)[C@@H]1CCNc3c(Cl)cccc31)C[C@@H](O)CC2 (single isomer, unassigned) [Example 206, ((6S*)-3-amino-6-hydroxy-4,5,6,7-tetrahydroindazol-2-yl)((4R*)-8-chloro-1,2,3,4-tetrahydroquinolin-4-yl)methanone] | 2.8 |
| CN1CCC(C(=O)n2nc3c(c2N)CCCC3)c2cccnc21 (centres unmarked) [Example 87, (3-amino-4,5,6,7-tetrahydroindazol-2-yl)(1-methyl-1,2,3,4-tetrahydro-1,8-naphthyridin-4-yl)methanone] | 5 |
| Nc1c2c(nn1C(=O)C1CCCc3[nH]c(Cl)cc31)CCCC2 (single isomer, unassigned) [Example 106, (S*)-(3-amino-4,5,6,7-tetrahydro-2H-indazol-2-yl)(2-chloro-4,5,6,7-tetrahydro-1H-indol-4-yl)methanone] | 0.04 |
| Nc1nn(C(=O)[C@@H]2CCNc3c(Cl)cccc32)c2c1CC[C@@H](O)C2 (single isomer, unassigned) [Example 212, ((6R*)-3-amino-6-hydroxy-4,5,6,7-tetrahydroindazol-1-yl)((4R*)-8-chloro-1,2,3,4-tetrahydroquinolin-4-yl)methanone] | > 100 |
| Nc1nn(C(=O)C2CCNc3c(Cl)cccc32)c2c1CC(O)CC2 (single isomer, unassigned) [Example 205, ((5R*)-3-amino-5-hydroxy-4,5,6,7-tetrahydroindazol-1-yl)(8-chloro-1,2,3,4-tetrahydroquinolin-4-yl)methanone] | > 100 |
| Nc1c2c(nn1C(=O)C1CCNc3ccc(F)cc31)CCC(NC(=O)OCc1ccccc1)C2 (single isomer, unassigned) [Example 186, benzyl (5R*)-3-amino-2-(6-fluoro-1,2,3,4-tetrahydroquinoline-4-carbonyl)-4,5,6,7-tetrahydro-2H-indazol-5-ylcarbamate] | 2.5 |
| Cn1c(Cl)cc2c1CCCC2C(=O)n1nc2c(c1N)CCCC2 (centres unmarked) [Example 112, (3-amino-4,5,6,7-tetrahydroindazol-2-yl)(2-chloro-1-methyl-4,5,6,7-tetrahydro-1H-indol-4-yl)methanone] | 0.18 |
| Nc1nn(C(=O)[C@H]2CCNc3ccc(Cl)cc32)c2c1C[C@@H](O)CC2 (single isomer, unassigned) [Example 146, ((5S*)-3-amino-5-hydroxy-4,5,6,7-tetrahydroindazol-1-yl)((4S*)-6-chloro-1,2,3,4-tetrahydroquinolin-4-yl)methanone] | > 80 |
| Cn1ccc2c1CCCC2C(=O)n1nc2c(c1N)CCCC2 (single isomer, unassigned) [Example 97, (S*)-(3-amino-4,5,6,7-tetrahydroindazol-2-yl)(1-methyl-4,5,6,7-tetrahydro-1H-indol-4-yl)methanone] | 0.4 |
| Nc1c2c(nn1C(=O)[C@@H]1CCNc3ccc(F)cc31)CC[C@@H](F)C2 (single isomer, unassigned) [Example 138, ((5R*)-3-amino-5-fluoro-4,5,6,7-tetrahydroindazol-2-yl)((4R*)-6-fluoro-1,2,3,4-tetrahydroquinolin-4-yl)methanone] | 16 |
| Nc1c2c(nn1C(=O)[C@H]1CCNc3ccc(F)cc31)CC[C@@H](N)C2 (stereo in doubt) [Example 189, ((5R*)-3,5-diamino-4,5,6,7-tetrahydroindazol-2-yl)((4S*)-6-fluoro-1,2,3,4-tetrahydroquinolin-4-yl)methanone] | 3 |
